Patent US20070142427A1, “Noncyclic 1,3-Dicarbonyl compounds as dual PPAR agonists with potent antihyperglycemic and antihyperlipidemic activity” (Shenzhen Chipscreen Biosciences Ltd., priority 2002, published 2007)

Key:
db/db mice [1] = assay: Blood triglyceride lowering in db/db mice in vivo; conditions: male db/db mice, once daily gavage for 9 days; measured at day 9 after 3 hours fasting after dosing, tail blood, Roche Strips (FIG. 4)
Description: (§1) 7 week-old male db/db (C57BLKS/J-m+/+Lepr^db) mice (n=10) from Jackson Laboratories (Bar Harbor, Me.) were treated once daily with indicated doses of the compound by gavage feeding at each morning for 9 consecutive days. All animals were maintained under standardized conditions (12-hour light/dark cycle, 22° C.). At day 9 of the treatment, blood triglyceride level was measured after 3 hours fasting after dosing by taking tail blood using Roche Strips.

db/db mice [2] = assay: Blood glucose lowering in db/db mice in vivo; conditions: male db/db mice, once daily gavage for 9 days; measured at day 9 after 3 hours fasting after dosing, tail blood, Bayer Strips (FIG. 3)
Description: as §1, with “glucose” for “triglyceride”, “Bayer” for “Roche”

COC(=O)C(Cc1ccc(OCCOc2ccc3c(c2)CCCC3)cc1)C(=O)OC [CS-01300012, dimethyl 4-[2-(5,6,7,8-tetrahydro-2-naphthoxy)ethoxy] benzylmalonate]
blood triglyceride level (db/db mice [1]): effective in lowering blood triglyceride level | blood glucose level (db/db mice [2]): effective in lowering blood glucose level
